Patent publication US9145354B2, “Pharmaceutical compounds” (priority 2011, dated 2015)
pEC50, pIC50: −log10 of the molar value. Read-outs that look alike come from different tables or passages of the source.

Legend:
full length NS3/4a = full length NS3/4a (Hepatitis C virus genotype 1b (isolate BK) (HCV), UniProt P26663); experiment: NS3 Protease Assay (Example A), FRET-based; type: biochemical; details: for IC50: HCV NS3 protease assay, full length NS3/4a, read-out: Assay A IC50 (μM) average; for pIC50: read-out: IC50 against the protease activity of the full length NS3/4a
Procedure, shortened: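 Full-length NS3/4a, made in-house, with an NS4A/B-derived peptide substrate carrying QXL520 quencher and 5-FAMsp fluorophore. Buffer 50 mM Tris pH8, 20 mM DTT, 1% CHAPS, 10% glycerol, 5% DMSO. Fluorescence followed 30 min at room temperature; IC50 from initial rates of replicate curves.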

[1] = test system: HCV subgenomic replicon in Huh-7 cells; experiment: Replicon Assay (Example B), luciferase readout EC50; type: cell-based; details: Hepatitis C virus, Huh-7, replicon assay, luciferase readout; upper value of the cell pair; read-out: Assay B EC50
Procedure, shortened: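 Huh-7 cells carrying a luciferase-neo HCV subgenomic replicon (NS3–NS5b) were treated with semilog compound dilutions (0.1% DMSO final), in triplicate, for 72 h at 37° C. EC50 came from Bright-Glo luciferase signal as a proxy for replicon RNA; viability was read by Alamar blue.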

[2] = Replicon Assay (Example B), Alamar Blue cytotoxicity CC50; type: cell-based; details: human, lower value of the cell pair
Procedure, shortened: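 Huh-7 cells carrying a luciferase/neo HCV subgenomic replicon (NS3–NS5b) were treated with semilog compound dilutions in triplicate (0.1% DMSO) for 72 h at 37 °C. Viability came from Alamar blue resazurin-to-resorufin fluorescence (535/590 nm) for CC50. EC50 came from Bright-Glo luciferase luminescence as a proxy for HCV RNA.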

Sequence of full length NS3/4a (P26663 1027-1657): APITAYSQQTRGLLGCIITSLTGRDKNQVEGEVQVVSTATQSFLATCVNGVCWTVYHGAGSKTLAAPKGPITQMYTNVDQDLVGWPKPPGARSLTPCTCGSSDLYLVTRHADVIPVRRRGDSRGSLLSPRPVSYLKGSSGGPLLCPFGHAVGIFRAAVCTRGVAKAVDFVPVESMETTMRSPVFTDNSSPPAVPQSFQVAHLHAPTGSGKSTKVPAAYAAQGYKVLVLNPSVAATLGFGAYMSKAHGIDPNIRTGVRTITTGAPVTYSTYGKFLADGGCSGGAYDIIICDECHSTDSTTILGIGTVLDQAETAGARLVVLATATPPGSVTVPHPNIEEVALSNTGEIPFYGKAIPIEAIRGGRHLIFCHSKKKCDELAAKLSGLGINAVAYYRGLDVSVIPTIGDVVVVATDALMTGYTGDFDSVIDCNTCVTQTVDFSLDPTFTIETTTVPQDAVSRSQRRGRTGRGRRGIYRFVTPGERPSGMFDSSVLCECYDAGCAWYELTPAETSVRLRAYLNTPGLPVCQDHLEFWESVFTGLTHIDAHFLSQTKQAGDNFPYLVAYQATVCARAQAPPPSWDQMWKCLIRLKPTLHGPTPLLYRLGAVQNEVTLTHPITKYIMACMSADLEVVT

| SMILES | IC50 (full length NS3/4a) | pIC50 (full length NS3/4a) | pEC50 [1] | CC50 at 72 h [2] | inhibition at 0.1 µM (full length NS3/4a; @ 0.1 uM) |
| --- | --- | --- | --- | --- | --- |
| CC[C@@H](N[C@@H](C)CC(N)=O)c1ccc(Cl)c(C(=O)c2ccc3c(n2)NC(=O)CO3)c1F [Example 229, (3S)-3-{[(1R)-1-[4-chloro-2-fluoro-3-({3-oxo-2H,3H,4H-pyrido[3,2-b][1,4]oxazin-6-yl}carbonyl)phenyl]propyl]amino}butanamide] | 1.1 µM | 5.30 to 6.00 | 5.72 | > 3000 nM |  |
| CC[C@@H](N[C@@H](C)CC(N)=O)c1ccc(Cl)c(C(=O)c2ccc(O)cc2)c1F [Example 230, (3S)-3-{[(1R)-1-{4-chloro-2-fluoro-3-[(4-hydroxyphenyl)carbonyl]phenyl}propyl]amino} butanamide] | 0.55 µM | > 6.00 | 7.43 | > 3000 nM |  |
| CC[C@@H](N[C@@H](C)CC(N)=O)c1ccc(Cl)c(C(=O)c2ccc(N)c(Cl)c2)c1F [Example 234, (3S)-3-{[(1R)-1-{3-[(4-amino-3-chlorophenyl)carbonyl]-4-chloro-2-fluorophenyl}propyl]amino} butanamide] | 0.14 µM | > 6.00 | 8.55 | > 1000 nM |  |
| CC[C@@H](N[C@@H](C)CC(N)=O)c1ccc(Cl)c(C(=O)c2ccc(C#N)c(OC)c2)c1F [Example 235, (3S)-3-{[(1R)-1-{4-chloro-3-[(4-cyano-3-methoxyphenyl)carbonyl]-2-fluorophenyl}propyl]amino} butanamide] | 0.13 µM | > 6.00 | 8.06 | > 1000 nM |  |
| C[C@@H](CC(N)=O)N[C@@H](c1ccc(Cl)c(C(=O)c2ccc(N)cn2)c1F)C1CC1 [Example 237, (3S)-3-{[(R)-{3-[(5-aminopyridin-2-yl)carbonyl]-4-chloro-2-fluorophenyl}(cyclopropyl)methyl]amino}butanamide] | 0.31 µM |  | 7.33 | > 1000 nM |  |
| C[C@@H](CC(N)=O)N[C@@H](c1ccc(Cl)c(C(=O)c2ccc(C#N)cn2)c1F)C1CC1 [Example 238, (3S)-3-{[(R)-{4-chloro-3-[(5-cyanopyridin-2-yl)carbonyl]-2-fluorophenyl}(cyclopropyl)methyl]amino}butanamide] | 0.11 µM |  | 7.52 | > 1000 nM |  |
| CC[C@@H](N[C@@H](C)CC(N)=O)c1ccc(Cl)c(C(=O)c2cc(C)c(N)cn2)c1F [Example 239, (3S)-3-{[(1R)-1-{3-[(5-amino-4-methylpyridin-2-yl)carbonyl]-4-chloro-2-fluorophenyl}propyl]amino} butanamide] | 0.5 µM |  | 7.42 | > 1000 nM |  |
| CC[C@@H](N[C@@H](C)CC(=O)NCCO)c1ccc(Cl)c(C(=O)c2ccc(N)nc2)c1F [Example 242, (3S)-3-{[(1R)-1-{3-[(6-aminopyridin-3-yl)carbonyl]-4-chloro-2-fluorophenyl}propyl]amino}-N-(2-hydroxyethyl)butanamide] | 0.49 µM |  | 7.01 | > 1000 nM |  |
| CC[C@@H](N[C@@H](C)CC(N)=O)c1ccc(Cl)c(C(=O)c2ccc3c(c2)OCC(=O)N3)c1F [Example 247, (3S)-3-{[(1R)-1-{4-chloro-2-fluoro-3-[(3-oxo-3,4-dihydro-2H-1,4-benzoxazin-7-yl)carbonyl]phenyl}propyl]amino}butanamide] | 0.29 µM | > 6.00 | 7.68 | > 1000 nM |  |
| CC[C@@H](N[C@@H](C)CC(N)=O)c1ccc(Cl)c(C(=O)c2ccc3c(c2)OCCN3)c1F [Example 249, (3S)-3-{[(1R)-1-{4-chloro-3-[(3,4-dihydro-2H-1,4-benzoxazin-7-yl)carbonyl]-2-fluorophenyl}propyl]amino} butanamide] | 0.27 µM |  | 7.48 | > 1000 nM |  |
| CC[C@@H](NC(C)(C)CC(N)=O)c1ccc(Cl)c(C(=O)c2ccc(N)nc2)c1F [Example 250, 3-{[(1R)-1-{3-[(6-aminopyridin-3-yl)carbonyl]-4-chloro-2-fluorophenyl}propyl]amino}-3-methylbutanamide] | 0.095 µM |  | 7.54 | > 1000 nM |  |
| CC[C@H](NC(C)(C)CC(N)=O)c1ccc(Cl)c(C(=O)c2ccc(N)nc2)c1F [Example 251, 3-{[(1S)-1-{3-[(6-aminopyridin-3-yl)carbonyl]-4-chloro-2-fluorophenyl}propyl]amino}-3-methylbutanamide] | 0.3 µM |  | < 6.00 | > 1000 nM |  |
| CC[C@@H](N[C@@H](C)CC(N)=O)c1ccc(OC)c(C(=O)c2ccc(N)nc2)c1F [Example 252, (3S)-3-{[(1R)-1-{3-[(6-aminopyridin-3-yl)carbonyl]-2-fluoro-4-methoxyphenyl}propyl]amino}butanamide] | 0.18 µM |  | 6.89 | > 1000 nM |  |
| C[C@@H](CC(N)=O)N[C@@H](c1ccc(Cl)c(C(=O)c2ccc(N)c(C#N)c2)c1F)C1CC1 [Example 255, (3S)-3-{[(R)-{3-[(4-amino-3-cyanophenyl)carbonyl]-4-chloro-2-fluorophenyl}(cyclopropyl)methyl]amino}butanamide] | 0.24 µM |  | 7.57 | > 1000 nM |  |
| C=CC[C@@H](N[C@@H](C)CC(N)=O)c1ccc(Cl)c(C(=O)c2ccc(N)nc2)c1F [Example 256, (3S)-3-{[(1R)-1-{3-[(6-aminopyridin-3-yl)carbonyl]-4-chloro-2-fluorophenyl}but-3-en-1-yl]amino} butanamide] | 0.47 µM |  | 7.34 | > 1000 nM |  |
| CCC[C@@H](N[C@@H](C)CC(N)=O)c1ccc(Cl)c(C(=O)c2ccc(N)nc2)c1F [Example 258, (3S)-3-{[(1R)-1-{3-[(6-aminopyridin-3-yl)carbonyl]-4-chloro-2-fluorophenyl}butyl]amino} butanamide] | 0.28 µM | > 6.00 | 7.70 | > 1000 nM |  |
| CC[C@@H](N[C@@H](C)CC(N)=O)c1ccc(Cl)c(C(=O)c2ccc(N)c(C)c2)c1F [Example 259, (3S)-3-{[(1R)-1-{3-[(4-amino-3-methylphenyl)carbonyl]-4-chloro-2-fluorophenyl}propyl]amino} butanamide] | 0.11 µM | > 6.00 | 7.68 | > 1000 nM |  |
| C[C@@H](CC(N)=O)N[C@@H](c1ccc(Cl)c(C(=O)c2ccc(N)c(Cl)c2)c1F)C1CC1 [Example 261, (3S)-3-{[(R)-{3-[(4-amino-3-chlorophenyl)carbonyl]-4-chloro-2-fluorophenyl}(cyclopropyl)methyl]amino}butanamide] | 0.16 µM | > 6.00 | 8.04 | > 1000 nM |  |
| Cc1cc(C(=O)c2c(Cl)ccc([C@H](N[C@@H](C)CC(N)=O)C3CC3)c2F)ccc1N [Example 262, (3S)-3-{[(R)-{3-[(4-amino-3-methylphenyl)carbonyl]-4-chloro-2-fluorophenyl}-(cyclopropyl)-methyl]-amino}butanamide] |  |  | 8.07 | > 1000 nM | 32% |
| C[C@@H](CC(N)=O)N[C@@H](c1ccc(Cl)c(C(=O)c2ccc(CO)cc2)c1F)C1CC1 [Example 263, (3S)-3-{[(R)-(4-chloro-2-fluoro-3-{[4-(hydroxyl-methyl)phenyl]-carbonyl}phenyl)(cyclo-propyl)-methyl]amino}-butanamide] | 0.11 µM |  | 8.40 | 79000 nM |  |
| [2H]C([2H])([2H])C([2H])([2H])[C@@H](N[C@@H](C)CC(N)=O)c1ccc(Cl)c(C(=O)c2ccc(N)nc2)c1F [Example 265, (3S)-3-{[(1R)-1-{3-[(6-aminopyridin-3-yl)carbonyl]-4-chloro-2-fluorophenyl}(2,2,3,3,3-deutero)propyl]amino}-butanamide] | 0.13 µM |  | 7.60 | > 3000 nM |  |
| [2H]C([2H])([2H])C([2H])([2H])[C@@H](N[C@@H](C)CC(N)=O)c1ccc(Cl)c(C(=O)c2ccc(N)c(Cl)c2)c1F [Example 267, (3S)-3-{[(1R)-1-{3-[(4-amino-3-chlorophenyl)carbonyl]-4-chloro-2-fluorophenyl}(2,2,3,3,3-deutero)propyl]amino}-butanamide] | 0.085 µM | > 6.00 | 8.30 | > 3000 nM |  |
| CC(C)C[C@@H](N[C@@H](C)CC(N)=O)c1ccc(Cl)c(C(=O)c2ccc(N)nc2)c1F [Example 269, (3S)-3-{[(1R)-1-{3-[(6-aminopyridin-3-yl)carbonyl]-4-chloro-2-fluorophenyl}-3-methylbutyl]amino}-butanamide] | 1.1 µM | 5.30 to 6.00 | 7.15 | > 3000 nM |  |
| C[C@@H](CC(N)=O)N[C@@H](c1ccc(Cl)c(C(=O)c2ccc3c(c2)OCC(=O)N3)c1F)C1CC1 [Example 270, (3S)-3-{[(R)-{4-chloro-2-fluoro-3-[(3-oxo-3,4-dihydro-2H-1,4-benzoxazin-7-yl)carbonyl]phenyl} (cyclopropyl)methyl]amino} butanamide] | 0.18 µM | > 6.00 | 8.22 | > 3000 nM |  |
